Reference: patent publication US10294202B2, “Pyrrolidinones as herbicides” (FMC Corporation, priority 2013, dated 2019)

Columns and labels:
[1] = test system: velvetleaf; assay: Test A pre-/postemergence herbicide test; assay type: in vivo, Abutilon theophrasti
Procedure, shortened: (§1)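 Approximately 10 days after treatment in the greenhouse, plants were compared with untreated controls and given a 0–100 visual injury rating. Applications: preemergence directed soil spray; postemergence on 2–10 cm plants at the one- to two-leaf stage.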

[2] = test system: barnyardgrass; assay: Test A pre-/postemergence herbicide test; assay type: in vivo, Echinochloa crus-galli
Procedure, shortened: as §1

[3] = test system: barnyardgrass; assay: Test B flooded paddy test; assay type: in vivo, Echinochloa crus-galli; conditions: 250 g ai/ha, Flood; scale of 0 to 100 where 0 is no effect and 100 is complete control
Procedure, shortened: (§2)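 Plants were grown to the 2-leaf stage, then pots were flooded to 3 cm above the soil and compound was applied directly into the paddy water, with that depth held throughout. After 13 to 15 days in a greenhouse, injury was rated visually against untreated controls on a 0 to 100 scale (100 = complete control).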

[4] = test system: rice; assay: Test B flooded paddy test; assay type: in vivo, Oryza sativa; conditions: 250 g ai/ha, Flood; scale of 0 to 100 where 0 is no effect and 100 is complete control
Procedure, shortened: as §2

[5] = test system: crabgrass, large; assay: Test A pre-/postemergence herbicide test; assay type: in vivo, Digitaria sanguinalis
Procedure, shortened: as §1

[6] = test system: sedge, umbrella; assay: Test B flooded paddy test; assay type: in vivo, Cyperus difformis; conditions: 250 g ai/ha, Flood; scale of 0 to 100 where 0 is no effect and 100 is complete control
Procedure, shortened: as §2

[7] = test system: corn; assay: Test A pre-/postemergence herbicide test; assay type: in vivo, Zea mays
Procedure, shortened: as §1

[8] = test system: giant foxtail; assay: Test A pre-/postemergence herbicide test; assay type: in vivo, Setaria faberii
Procedure, shortened: as §1

[9] = test system: pigweed; assay: Test A pre-/postemergence herbicide test; assay type: in vivo, Amaranthus retroflexus
Procedure, shortened: as §1

[10] = test system: wheat; assay: Test A pre-/postemergence herbicide test; assay type: in vivo, Triticum aestivum
Procedure, shortened: as §1

[11] = test system: morningglory; assay: Test A pre-/postemergence herbicide test; assay type: in vivo, Ipomoea spp.
Procedure, shortened: as §1

[12] = test system: ducksalad; assay: Test B flooded paddy test; assay type: in vivo, Heteranthera limosa; conditions: 250 g ai/ha, Flood; scale of 0 to 100 where 0 is no effect and 100 is complete control
Procedure, shortened: as §2

[13] = Postemergence, 125 g ai/ha, 0 to 100 scale, 0 no effect, 100 complete control
[14] = Postemergence, 500 g ai/ha, 0 to 100 scale (0 no effect, 100 complete control)
[15] = Preemergence, 125 g ai/ha, visual rating on 0 to 100 scale (0 no effect, 100 complete control)
[16] = preemergence, 500 g ai/ha, 0 to 100 scale
[17] = Postemergence, 125 g ai/ha, 0 to 100 scale, 0 is no effect, 100 is complete control
[18] = Preemergence, 125 g ai/ha, 0 to 100 scale where 0 is no effect and 100 is complete control
[19] = preemergence, 500 g ai/ha, 0 to 100 scale, 0 is no effect and 100 is complete control

## NC1=NCC(c2ccc(F)c(F)c2)C1C(=O)Nc1ccccc1F (stereo not drawn) [Compound 95, 2-amino-4-(3,4-difluorophenyl)-N-(2-fluorophenyl)dihydro-3H-pyrrole-3-carboxamide]
[1]; [13]
  Plant response rating, Velvetleaf: 0
[1]; [14]
  Plant response rating, Velvetleaf: 0
[1]; [15]
  Velvetleaf plant response rating: 0
[1]; [16]
  Plant response rating, Velvetleaf: 0
[2]; [13]
  Plant response rating, Barnyardgrass: 80
[2]; [14]
  Plant response rating, Barnyardgrass: 90
[2]; [15]
  Barnyardgrass plant response rating: 60
[2]; preemergence, 500 g ai/ha, 0 to 100 scale (0 no effect, 100 complete control)
  Plant response rating, Barnyardgrass: 90
[3]
  Plant response rating, Barnyardgrass: 0
[4]
  Plant response rating, Rice: 0
[5]; [13]
  Plant response rating, Crabgrass, Large: 80
[5]; [14]
  Plant response rating, Crabgrass, Large: 90
[5]; [15]
  Crabgrass, Large plant response rating: 90
[5]; [16]
  Plant response rating, Crabgrass, Large: 90
[6]
  Plant response rating, Sedge, Umbrella: 0
[7]; [13]
  Plant response rating, Corn: 0
[7]; [14]
  Plant response rating, Corn: 0
[7]; [15]
  Corn plant response rating: 0
[7]; [16]
  Plant response rating, Corn: 0
[8]; [13]
  Plant response rating, Foxtail, Giant: 70
[8]; [14]
  Plant response rating, Foxtail, Giant: 80
[8]; [15]
  Foxtail, Giant plant response rating: 80
[8]; [16]
  Plant response rating, Foxtail, Giant: 90
[9]; [13]
  Plant response rating, Pigweed: 0
[9]; [14]
  Plant response rating, Pigweed: 0
[9]; [15]
  Pigweed plant response rating: 0
[9]; [16]
  Plant response rating, Pigweed: 0
[10]; [13]
  Plant response rating, Wheat: 0
[10]; [14]
  Plant response rating, Wheat: 0
[10]; [15]
  Wheat plant response rating: 0
[10]; [16]
  Plant response rating, Wheat: 0
[11]; [13]
  Plant response rating, Morningglory: 0
[11]; [14]
  Plant response rating, Morningglory: 0
[11]; [15]
  Morningglory plant response rating: 0
[11]; [16]
  Plant response rating, Morningglory: 0
[12]
  Plant response rating, Ducksalad: 90

## O=C1NCC(c2ccc(OC(F)(F)F)cc2)C1C(=O)Nc1cccc(F)c1F (racemic) [Compound 257]
[1]; [17]
  Plant response rating, Velvetleaf: 0
[1]; [14]
  Plant response rating, Velvetleaf: 0
[1]; [18]
  Plant response rating, Velvetleaf: 0
[1]; [19]
  Plant response rating, Velvetleaf: 0
[2]; [17]
  Plant response rating, Barnyardgrass: 50
[2]; [14]
  Plant response rating, Barnyardgrass: 80
[2]; [18]
  Plant response rating, Barnyardgrass: 40
[2]; [19]
  Plant response rating, Barnyardgrass: 80
[3]
  Plant response rating, Barnyardgrass: 0
[4]
  Plant response rating, Rice: 15
[5]; [17]
  Plant response rating, Crabgrass, Large: 90
[5]; [14]
  Plant response rating, Crabgrass, Large: 90
[5]; [18]
  Plant response rating, Crabgrass, Large: 90
[5]; [19]
  Plant response rating, Crabgrass, Large: 90
[6]
  Plant response rating, Sedge, Umbrella: 0
[7]; [17]
  Plant response rating, Corn: 0
[7]; [14]
  Plant response rating, Corn: 20
[7]; [18]
  Plant response rating, Corn: 0
[7]; [19]
  Plant response rating, Corn: 0
[8]; [17]
  Plant response rating, Foxtail, Giant: 80
[8]; [14]
  Plant response rating, Foxtail, Giant: 90
[8]; [18]
  Plant response rating, Foxtail, Giant: 80
[8]; [19]
  Plant response rating, Foxtail, Giant: 90
[9]; [17]
  Plant response rating, Pigweed: 0
[9]; [14]
  Plant response rating, Pigweed: 0
[9]; [18]
  Plant response rating, Pigweed: 0
[9]; [19]
  Plant response rating, Pigweed: 0
[10]; [17]
  Plant response rating, Wheat: 20
[10]; [14]
  Plant response rating, Wheat: 30
[10]; [18]
  Plant response rating, Wheat: 0
[10]; [19]
  Plant response rating, Wheat: 0
[11]; [17]
  Plant response rating, Morningglory: 0
[11]; [14]
  Plant response rating, Morningglory: 0
[11]; [18]
  Plant response rating, Morningglory: 0
[11]; [19]
  Plant response rating, Morningglory: 0
[12]
  Plant response rating, Ducksalad: 70
